In brackets after ≈: the same amount, converted by molar mass. Counter-ions that a name gives are not always drawn. One block for each molecule: values may come before it.
Columns and labels:
[1] = Solubility in simulated gastric/intestinal fluids and pH media; assay type: physicochemical; details: for solubility at 0.5 h / solubility at 4 h / solubility at 24 h / solubility at 0.5 hr / solubility at 4 hr / solubility at 24 hr: thermodynamic from solid
[2] = Dissolution profiles (capsule) in pH1.6 simulated gastric fluid and pH 4 citrate buffer; assay type: physicochemical
Protocol: Dissolution profiles of the HBr salt (50 mg as free form) in a capsule compared with the free base in pH1.6 simulated gastric fluid and in pH 4 citrate buffer. The HBr salt is better.

- Solubility ([1]; Phares FaSSIF pH 6.5, 4 hr): 272 µg/mL
- solubility at 0.5 h ([1]; SGF (simulated gastric fluid), pH 1.6, simulated gastric fluid, Batch 1, SGF pH 1.6, 0.5 hr): 770 µg/mL
- solubility at 4 h ([1]; SGF (simulated gastric fluid), pH 1.6, simulated gastric fluid, Batch 1, SGF pH 1.6, 4 hr): 787 µg/mL
- solubility at 24 h ([1]; SGF (simulated gastric fluid), pH 1.6, simulated gastric fluid, Batch 1, SGF pH 1.6, 24 hr): 795 µg/mL
- solubility at 0.5 h ([1]; SGF (simulated gastric fluid), pH 1.6, simulated gastric fluid, Batch 2, SGF pH 1.6, 0.5 hr): 414 µg/mL
- solubility at 4 h ([1]; SGF (simulated gastric fluid), pH 1.6, simulated gastric fluid, Batch 2, SGF pH 1.6, 4 hr): 647 µg/mL
- solubility at 24 h ([1]; SGF (simulated gastric fluid), pH 1.6, simulated gastric fluid, Batch 2, SGF pH 1.6, 24 hr): 800 µg/mL
- solubility at 0.5 h ([1]; SGF (simulated gastric fluid), pH 1.6, simulated gastric fluid, Batch 3, SGF pH 1.6, 0.5 hr): 757 µg/mL
- Solubility compared with the free base ([1]; at higher pH's and in simulated intestinal fluids): higher than the free base
- solubility at 0.5 hr ([1]; fasted-state simulated intestinal fluid (Phares FaSSIF), pH 6.5, fassif, Batch 1, Phares FaSSif pH 6.5, 0.5 hr): 420 µg/mL
- solubility at 4 hr ([1]; fasted-state simulated intestinal fluid (Phares FaSSIF), pH 6.5, fassif, Batch 1, Phares FaSSif pH 6.5, 4 hr): 384 µg/mL
- solubility at 24 hr ([1]; fasted-state simulated intestinal fluid (Phares FaSSIF), pH 6.5, fassif, Batch 1, Phares FaSSif pH 6.5, 24 hr): 64 µg/mL
- solubility at 0.5 hr ([1]; fasted-state simulated intestinal fluid (Phares FaSSIF), pH 6.5, fassif, Batch 2, Phares FaSSif pH 6.5, 0.5 hr): 270 µg/mL
- solubility at 4 hr ([1]; fasted-state simulated intestinal fluid (Phares FaSSIF), pH 6.5, fassif, Batch 2, Phares FaSSif pH 6.5, 4 hr): 379 µg/mL
- solubility at 24 hr ([1]; fasted-state simulated intestinal fluid (Phares FaSSIF), pH 6.5, fassif, Batch 2, Phares FaSSif pH 6.5, 24 hr): 79 µg/mL
- solubility at 0.5 hr ([1]; fasted-state simulated intestinal fluid (Phares FaSSIF), pH 6.5, fassif, Batch 3, Phares FaSSif pH 6.5, 0.5 hr): 459 µg/mL
- solubility at 4 hr ([1]; fasted-state simulated intestinal fluid (Phares FaSSIF), pH 6.5, fassif, Batch 3, Phares FaSSif pH 6.5, 4 hr): 227 µg/mL
- solubility at 24 hr ([1]; fasted-state simulated intestinal fluid (Phares FaSSIF), pH 6.5, fassif, Batch 3, Phares FaSSif pH 6.5, 24 hr): 56 µg/mL
- solubility at 0.5 hr ([1]; fed-state simulated intestinal fluid (Phares FeSSIF), fessif, Batch 1, Phares FeSSIF pH .5, 0.5 hr): 838 µg/mL
- solubility at 4 hr ([1]; fed-state simulated intestinal fluid (Phares FeSSIF), fessif, Batch 1, Phares FeSSIF pH .5, 4 hr): 833 µg/mL
- solubility at 24 hr ([1]; fed-state simulated intestinal fluid (Phares FeSSIF), fessif, Batch 1, Phares FeSSIF pH .5, 24 hr): 788 µg/mL
- solubility at 0.5 hr ([1]; fed-state simulated intestinal fluid (Phares FeSSIF), fessif, Batch 2, Phares FeSSIF pH .5, 0.5 hr): 478 µg/mL
- solubility at 4 hr ([1]; fed-state simulated intestinal fluid (Phares FeSSIF), fessif, Batch 2, Phares FeSSIF pH .5, 4 hr): 846 µg/mL
- solubility at 24 hr ([1]; fed-state simulated intestinal fluid (Phares FeSSIF), fessif, Batch 2, Phares FeSSIF pH .5, 24 hr): 834 µg/mL
- solubility at 0.5 hr ([1]; fed-state simulated intestinal fluid (Phares FeSSIF), fessif, Batch 3, Phares FeSSIF pH .5, 0.5 hr): 724 µg/mL
- solubility at 4 hr ([1]; fed-state simulated intestinal fluid (Phares FeSSIF), pH 6.5, fessif, Batch 3, Phares FeSSIF pH .5, 4 hr): 841 µg/mL
- solubility at 24 hr ([1]; fed-state simulated intestinal fluid (Phares FeSSIF), pH 6.5, fessif, Batch 3, Phares FeSSIF pH .5, 24 hr): 340 µg/mL
- Solubility at higher pH as compared to the free base ([1]; higher pH): improved
- solubility at 0.5 h ([1]; pH 2, aqueous buffer, Batch 3, pH 2.0, 0.5 hr): 605 µg/mL
- solubility at 4 h ([1]; pH 2, aqueous buffer, Batch 3, pH 2.0, 4 hr): 635 µg/mL
- solubility at 24 h ([1]; pH 2, aqueous buffer, Batch 3, pH 2.0, 24 hr): 609 µg/mL
- solubility at 24 h ([1]; pH 2, aqueous buffer, pH 2.0, 24 hr): 609 µg/mL
- solubility at 0.5 h ([1]; pH 4, aqueous buffer, Batch 3, pH 4.0, 0.5 hr): 685 µg/mL
- solubility at 4 h ([1]; pH 4, aqueous buffer, Batch 3, pH 4.0, 4 hr): 670 µg/mL
- solubility at 24 h ([1]; pH 4, aqueous buffer, Batch 3, pH 4.0, 24 hr): 609 µg/mL
- solubility at 4 h ([1]; pH 4, aqueous buffer, pH 4.0, 4 hr): 670 µg/mL
- solubility at 0.5 h ([1]; pH 6, aqueous buffer, Batch 3, pH 6.0, 0.5 hr): 194 µg/mL
- solubility at 4 h ([1]; pH 6, aqueous buffer, Batch 3, pH 6.0, 4 hr): 13 µg/mL
- solubility at 24 h ([1]; pH 6, aqueous buffer, Batch 3, pH 6.0, 24 hr): 5 µg/mL
- solubility at 0.5 h ([1]; pH 8, aqueous buffer, Batch 3, pH 8.0, 0.5 hr): 52 µg/mL
- solubility at 4 h ([1]; pH 8, aqueous buffer, Batch 3, pH 8.0, 4 hr): 13 µg/mL
- solubility at 24 h ([1]; pH 8, aqueous buffer, Batch 3, pH 8.0, 24 hr): 8 µg/mL
- solubility at 0.5 h ([1]; pH 8, aqueous buffer, pH 8.0, 0.5 hr): 52 µg/mL
- solubility at 4 h ([1]; pH 8, aqueous buffer, pH 8.0, 4 hr): 13 µg/mL
- solubility at 24 h ([1]; pH 8, aqueous buffer, pH 8.0, 24 hr): 8 µg/mL
- solubility at 4 hr ([1]; simulated gastric fluid (SGF), pH 1.6, simulated gastric fluid, Batch 3, SGF pH 1.6, 4 hr): 795 µg/mL
- solubility at 24 hr ([1]; simulated gastric fluid (SGF), pH 1.6, simulated gastric fluid, Batch 3, SGF pH 1.6, 24 hr): 779 µg/mL
- Dissolution profile ([2]; 50 mg as free form in a capsule, pH1.6 simulated gastric fluid and pH 4 citrate buffer, FIGS. 1 and 2): better
- Rate of dissolution at an elevated gastric pH ([2]; FIG. 2, elevated gastric pH): greatest rate of dissolution
- Dissolution profile at higher pH as compared to the free base ([2]; higher pH): improved
SMILES: Cc1c(F)cccc1NC(=O)Nc1ccc(Cl)c(S(=O)(=O)[C@H]2CCCNC2)c1O [HBr Salt, hydrobromide salt of the enantiomer N-{4-chloro-2-hydroxy-3-[(3S)-3-piperidinylsulfonyl]phenyl}-N′-(3-fluoro-2-methylphenyl)urea]
- Solubility in simulated intestinal fluids over time ([1]; simulated intestinal fluids, compared with free base): does reduce with time but is still much higher than the equivalent free base solubility
- Dissolution rate at low gastric pH ([2]; FIG. 1, low gastric pH): enhanced dissolution rate without gelling

- Solubility ([1]; Phares FaSSIF pH 6.5, 0.5 hr): 9 µg/mL (≈ 20.4 µM)
- Solubility ([1]; Phares FaSSIF pH 6.5, 4 hr): 18 µg/mL (≈ 40.7 µM)
- Solubility ([1]; Phares FaSSIF pH 6.5, 24 hr): 10 µg/mL (≈ 22.6 µM)
- Solubility ([1]; Phares FeSSIF pH 6.5, 0.5 hr): 19 µg/mL (≈ 43 µM)
- Solubility ([1]; Phares FeSSIF pH 6.5, 4 hr): 24 µg/mL (≈ 54.3 µM)
- Solubility ([1]; Phares FeSSIF pH 6.5, 24 hr): 25 µg/mL (≈ 56.6 µM)
- solubility at 0.5 h ([1]; SGF (simulated gastric fluid), pH 1.6, simulated gastric fluid, SGF pH1.6, 0.5 hr): 715 µg/mL (≈ 1620 µM)
- solubility at 4 h ([1]; SGF (simulated gastric fluid), pH 1.6, simulated gastric fluid, SGF pH1.6, 4 hr): 808 µg/mL (≈ 1830 µM)
- solubility at 24 h ([1]; SGF (simulated gastric fluid), pH 1.6, simulated gastric fluid, SGF pH1.6, 24 hr): 842 µg/mL (≈ 1910 µM)
- Solubility ([1]; pH 2.0, 24 hr): 697 µg/mL (≈ 1580 µM)
- solubility at 0.5 h ([1]; pH 2, aqueous buffer, pH 2.0, 0.5 hr): 601 µg/mL (≈ 1360 µM)
- solubility at 4 h ([1]; pH 2, aqueous buffer, pH 2.0, 4 hr): 662 µg/mL (≈ 1500 µM)
- Solubility ([1]; pH 4.0, 0.5 hr): 21 µg/mL (≈ 47.5 µM)
- Solubility ([1]; pH 4.0, 4 hr): 23 µg/mL (≈ 52 µM)
- Solubility ([1]; pH 4.0, 24 hr): 24 µg/mL (≈ 54.3 µM)
- solubility at 24 h ([1]; pH 6, aqueous buffer, pH 6.0, 24 hr): 4 µg/mL (≈ 9.05 µM)
- Solubility ([1]; pH 8.0, 0.5 hr): 5 µg/mL (≈ 11.3 µM)
- Solubility ([1]; pH 8.0, 4 hr): 5 µg/mL (≈ 11.3 µM)
- Solubility ([1]; pH 8.0, 24 hr): 5 µg/mL (≈ 11.3 µM)
SMILES: Cc1c(F)cccc1NC(=O)Nc1ccc(Cl)c(S(=O)(=O)[C@H]2CCCNC2)c1O [Micronised free base, N-{4-chloro-2-hydroxy-3-[(3S)-3-piperidinylsulfonyl]phenyl}-N′-(3-fluoro-2-methylphenyl) urea, reference compound]

From patent publication US9809540B2, “Hydrobromide salt of N-(4-chloro-2-hydroxy-3-((3S)-3-piperidinylsulfonyl)phenyl-N'-(3-fluoro-2-methylphenyl)urea” (GlaxoSmithKline Intellectual Property (No.2) Limited, priority 2013, dated 2017)
